# According to ChEMBL document CHEMBL1201862, “PubChem BioAssay data set” (2004):
#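 Five compound concentrations were applied to cells in 96-well plates for 48 hours; endpoints were derived by simple linear interpolation of the resulting dose-response curve. GI50: concentration for 50% inhibition of growth.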 Active and inactive are the calls of the source. No stated cut-off is given here; in the data, active = GI50 up to about 1.1 µM and inactive = higher.
# Tests used:
# Assay in all cases: NCI anticancer screen, dose series, 48 h
# UACC-62 = tested on: UACC-62
# OVCAR-4 = tested on: OVCAR-4
# CCRF-CEM = tested on: CCRF-CEM
# U-251 = tested on: U-251
# RPMI-8226 = tested on: RPMI-8226
# HOP-62 = tested on: HOP-62
# OVCAR-5 = tested on: OVCAR-5
# NCI-H522 = tested on: NCI-H522
# NCI-H460 = tested on: NCI-H460
# SK-OV-3 = tested on: SK-OV-3
# Malme-3M = tested on: Malme-3M
# K562 = tested on: K562
# SF-539 = tested on: SF-539
# TK-10 = tested on: TK-10
# LOX IMVI = tested on: LOX IMVI
# SK-MEL-5 = tested on: SK-MEL-5
# SR = tested on: SR
Compound,GI50 (UACC-62),GI50 (OVCAR-4),GI50 (CCRF-CEM),GI50 (U-251),GI50 (RPMI-8226),GI50 (HOP-62),GI50 (OVCAR-5),GI50 (NCI-H522),GI50 (NCI-H460),GI50 (SK-OV-3),GI50 (Malme-3M),GI50 (K562),GI50 (SF-539),GI50 (TK-10),GI50 (LOX IMVI),GI50 (SK-MEL-5),GI50 (SR)
COc1cccc(NC(=O)CC(=O)N2N=C(n3ccc4ccccc43)CC2c2ccccc2)c1 (centres undefined),> 100 µM (inactive),> 100 µM (inactive),> 100 µM (inactive),> 100 µM (inactive),> 100 µM (inactive),> 100 µM (inactive),> 100 µM (inactive),> 100 µM (inactive),> 100 µM (inactive),> 100 µM (inactive),> 100 µM (inactive),> 100 µM (inactive),> 100 µM (inactive),> 100 µM (inactive),> 100 µM (inactive),,
C=C(COC(C)=O)CC(/C=C(\C)CC/C=C(\C)CO)OC(C)=O (centres undefined),> 100 µM (inactive),> 100 µM (inactive),> 100 µM (inactive),> 100 µM (inactive),> 10 µM (inactive),> 100 µM (inactive),> 100 µM (inactive),> 100 µM (inactive),> 100 µM (inactive),> 100 µM (inactive),,> 100 µM (inactive),> 100 µM (inactive),> 100 µM (inactive),> 100 µM (inactive),> 100 µM (inactive),
O=C(O)C1=NN=C(C(=O)O)NN1,> 100 µM (inactive),> 100 µM (inactive),> 100 µM (inactive),> 100 µM (inactive),43.9 µM (inactive),,> 100 µM (inactive),> 100 µM (inactive),79.4 µM (inactive),37.9 µM (inactive),> 100 µM (inactive),72.9 µM (inactive),> 100 µM (inactive),> 100 µM (inactive),> 100 µM (inactive),> 100 µM (inactive),
O=C(/C=C/c1ccc([N+](=O)[O-])o1)N1CCN(Cc2ccccc2)CC1,6.82 µM (inactive),15.6 µM (inactive),2.7 µM (inactive),14 µM (inactive),10.5 µM (inactive),20.2 µM (inactive),17.3 µM (inactive),2.82 µM (inactive),11.2 µM (inactive),43.5 µM (inactive),,3.46 µM (inactive),6.61 µM (inactive),23.2 µM (inactive),12.6 µM (inactive),10.2 µM (inactive),13 µM (inactive)
CC(=O)N1CC(=O)NC1=S,> 100 µM (inactive),> 100 µM (inactive),> 100 µM (inactive),> 100 µM (inactive),> 100 µM (inactive),> 100 µM (inactive),> 100 µM (inactive),> 100 µM (inactive),,> 100 µM (inactive),> 100 µM (inactive),> 100 µM (inactive),> 100 µM (inactive),> 100 µM (inactive),> 100 µM (inactive),> 100 µM (inactive),> 100 µM (inactive)
CCC(=O)OC1CCn2c1nc1c2C(=O)C(C)=C(NC(C)=O)C1=N (centres undefined),1.32 µM (inactive),1.35 µM (inactive),1 µM (active),3.74 µM (inactive),2.06 µM (inactive),1.83 µM (inactive),1.87 µM (inactive),1.39 µM (inactive),1.47 µM (inactive),2.6 µM (inactive),1.43 µM (inactive),2.34 µM (inactive),1.74 µM (inactive),3.72 µM (inactive),0.755 µM (active),1.29 µM (inactive),2 µM (inactive)
Nc1nc(Cl)cc(NCCCCCNc2cc(Cl)nc(N)n2)n1,24 µM (inactive),34.8 µM (inactive),54.1 µM (inactive),> 100 µM (inactive),33.5 µM (inactive),> 100 µM (inactive),37.4 µM (inactive),20 µM (inactive),> 100 µM (inactive),> 100 µM (inactive),,34.6 µM (inactive),> 100 µM (inactive),> 100 µM (inactive),25.1 µM (inactive),23.5 µM (inactive),38.7 µM (inactive)
Cc1cccc(C)c1NC(=O)CCC/C(CC(=O)c1ccc(F)cc1)=N\NC(=O)C(=O)NN,> 100 µM (inactive),> 100 µM (inactive),> 100 µM (inactive),> 100 µM (inactive),> 100 µM (inactive),,> 100 µM (inactive),,> 100 µM (inactive),> 100 µM (inactive),> 100 µM (inactive),> 100 µM (inactive),> 100 µM (inactive),> 100 µM (inactive),> 100 µM (inactive),> 100 µM (inactive),
COC(=O)c1c2cccccc-2c(Cc2c3cccccc-3c(C(=O)OC)c2O)c1O,> 100 µM (inactive),> 100 µM (inactive),> 100 µM (inactive),> 100 µM (inactive),> 100 µM (inactive),> 100 µM (inactive),> 100 µM (inactive),> 100 µM (inactive),> 100 µM (inactive),> 100 µM (inactive),> 100 µM (inactive),> 100 µM (inactive),> 100 µM (inactive),> 100 µM (inactive),> 100 µM (inactive),> 100 µM (inactive),> 100 µM (inactive)
O=C(Cn1ccnc1[N+](=O)[O-])c1ccccc1,> 100 µM (inactive),> 100 µM (inactive),> 100 µM (inactive),,> 100 µM (inactive),> 100 µM (inactive),> 100 µM (inactive),> 100 µM (inactive),> 100 µM (inactive),> 100 µM (inactive),> 100 µM (inactive),> 100 µM (inactive),> 100 µM (inactive),> 100 µM (inactive),> 100 µM (inactive),> 100 µM (inactive),
CCOC(OCC)c1ccc(/C=C/c2cc(OC)c(OC)c(OC)c2)cc1,16.4 µM (inactive),22.3 µM (inactive),12.9 µM (inactive),16.3 µM (inactive),17.1 µM (inactive),19.8 µM (inactive),11.4 µM (inactive),25.2 µM (inactive),19.1 µM (inactive),,17.1 µM (inactive),17.1 µM (inactive),15.8 µM (inactive),33.4 µM (inactive),11.1 µM (inactive),15.2 µM (inactive),
CC1Cc2c(N)nc(NN)nc2NC1=O (centres undefined),> 100 µM (inactive),,> 100 µM (inactive),> 100 µM (inactive),> 100 µM (inactive),> 100 µM (inactive),,> 100 µM (inactive),> 100 µM (inactive),> 100 µM (inactive),> 100 µM (inactive),> 100 µM (inactive),> 100 µM (inactive),> 100 µM (inactive),> 100 µM (inactive),> 100 µM (inactive),
CC[N+](C)(CC)CC(C)(C)C(=O)/C=C/c1ccc(/C=C/C(=O)C(C)(C)C[N+](C)(CC)CC)cc1,> 100 µM (inactive),> 100 µM (inactive),> 100 µM (inactive),> 100 µM (inactive),> 100 µM (inactive),> 100 µM (inactive),> 100 µM (inactive),> 100 µM (inactive),> 100 µM (inactive),> 100 µM (inactive),> 100 µM (inactive),> 100 µM (inactive),> 100 µM (inactive),> 100 µM (inactive),> 100 µM (inactive),> 100 µM (inactive),
NC(=O)c1ccccc1NC(=O)C(=O)C(C(=O)c1ccc(Cl)c(Cl)c1)C1OC(=O)c2ccccc21 (centres undefined),30.8 µM (inactive),43.3 µM (inactive),> 100 µM (inactive),30.8 µM (inactive),69.2 µM (inactive),43.8 µM (inactive),> 100 µM (inactive),,,,14.5 µM (inactive),> 100 µM (inactive),,,,,95.9 µM (inactive)
CCOC(=O)/C(C#N)=C(O)/C(=C\c1ccc(Br)cc1)NC(=O)c1ccccc1,> 100 µM (inactive),> 100 µM (inactive),> 100 µM (inactive),> 100 µM (inactive),22.4 µM (inactive),> 100 µM (inactive),> 100 µM (inactive),,> 100 µM (inactive),> 100 µM (inactive),> 100 µM (inactive),> 100 µM (inactive),> 100 µM (inactive),> 100 µM (inactive),,> 100 µM (inactive),
O=C1CC[C@@H](S(=O)(=O)c2ccccc2)[C@H](/C=C/c2ccccc2)O1,> 100 µM (inactive),> 100 µM (inactive),> 100 µM (inactive),> 100 µM (inactive),> 100 µM (inactive),> 100 µM (inactive),> 100 µM (inactive),> 100 µM (inactive),> 100 µM (inactive),> 100 µM (inactive),> 100 µM (inactive),> 100 µM (inactive),> 100 µM (inactive),> 100 µM (inactive),> 100 µM (inactive),> 100 µM (inactive),> 100 µM (inactive)
CCN(CC)C(=S)SCC(=O)Nc1nc2c(s1)CCCC2,,> 100 µM (inactive),49.4 µM (inactive),70.1 µM (inactive),> 100 µM (inactive),> 100 µM (inactive),> 100 µM (inactive),28 µM (inactive),68.9 µM (inactive),> 100 µM (inactive),> 100 µM (inactive),,> 100 µM (inactive),> 100 µM (inactive),57 µM (inactive),26 µM (inactive),27.6 µM (inactive)
Cn1cc2ccccc2c1-c1nc(F)nc(OCC(=O)[C@H]2CCC3[C@@H]4CCC5=CC(=O)CC[C@]5(C)C4[C@@H](O)C[C@@]32C)n1 (some centres undefined),17.1 µM (inactive),14.9 µM (inactive),4.31 µM (inactive),19.4 µM (inactive),6.61 µM (inactive),22 µM (inactive),37.8 µM (inactive),15.2 µM (inactive),21.7 µM (inactive),19.1 µM (inactive),18.9 µM (inactive),2.91 µM (inactive),17.8 µM (inactive),23.1 µM (inactive),4.66 µM (inactive),20.3 µM (inactive),2.86 µM (inactive)
